Test results taken from patent publication US20180256673A1, “METHODS FOR TREATING FUNGAL INFECTIONS” (priority 2015, published 2018).
≈ marks a conversion by molar mass, not a printed value. Read-outs that look alike come from different tables or passages of the source.

Columns and labels:
[1] = test system: azole-resistant Candida albicans R357 strain; test: microbe, parasite or virus in culture; format: cell-based
[2] = test system: Candida parapsilosis; test: Broth microdilution of invasive fungal isolates (CLSI M27-A3/M38-A2); format: cell-based; conditions: CLSI breakpoints
[3] = test system: Candida albicans; test: as above; format: cell-based; conditions: CLSI breakpoints
[4] = test system: C. albicans vaginal isolates; test: Susceptibility testing of VVC clinical isolates at pH 7 and 4 (CLSI M27-A3); format: cell-based, Candida albicans; conditions: for Number of isolates at MIC 0.25 μg/mL / Number of isolates at MIC 0.5 μg/mL / Number of isolates at MIC 1 μg/mL / Number of isolates at MIC 2 μg/mL / Number of isolates at MIC 4 μg/mL / Number of isolates at MIC ≥4 μg/mL / Number of isolates at MIC 0.125 μg/mL: 60 VVC isolates; for MIC / MIC90: Candida albicans; for MIC: read-out: MIC; for MIC90: 60 isolates, read-out: MIC90

SMILES: OC(Cn1cncn1)(Cn1cncn1)c1ccc(F)cc1F [FLU, fluconazole]
- Susceptibility (CLSI) ([1]; C. albicans R357): R
- MIC ([1]; Candida albicans): > 64 µg/mL
- % of isolates with fluconazole resistance [2]: 4.3%
- % of isolates with fluconazole resistance [3]: 2.0%
- Number of isolates at MIC 0.25 μg/mL ([4]; 24 h, pH 4): 35
- Number of isolates at MIC 0.5 μg/mL ([4]; 24 h, pH 4): 13
- Number of isolates at MIC 1 μg/mL ([4]; 24 h, pH 4): 2
- Number of isolates at MIC 2 μg/mL ([4]; 24 h, pH 4): 2
- Number of isolates at MIC 4 μg/mL ([4]; 24 h, pH 4): 1
- Number of isolates at MIC ≥4 μg/mL ([4]; 24 h, pH 4): 7
- Number of isolates at MIC 0.125 μg/mL ([4]; 24 h, pH 7): 25
- Number of isolates at MIC 0.25 μg/mL ([4]; 24 h, pH 7): 19
- Number of isolates at MIC 0.5 μg/mL ([4]; 24 h, pH 7): 7
- Number of isolates at MIC 1 μg/mL ([4]; 24 h, pH 7): 1
- Number of isolates at MIC 2 μg/mL ([4]; 24 h, pH 7): 2
- Number of isolates at MIC ≥4 μg/mL ([4]; 24 h, pH 7): 6
- Number of isolates at MIC 0.5 μg/mL ([4]; 48 h, pH 4): 27
- Number of isolates at MIC 1 μg/mL ([4]; 48 h, pH 4): 13
- Number of isolates at MIC 2 μg/mL ([4]; 48 h, pH 4): 5
- Number of isolates at MIC 4 μg/mL ([4]; 48 h, pH 4): 1
- Number of isolates at MIC ≥4 μg/mL ([4]; 48 h, pH 4): 14
- Number of isolates at MIC 0.125 μg/mL ([4]; 48 h, pH 7): 3
- Number of isolates at MIC 0.25 μg/mL ([4]; 48 h, pH 7): 37
- Number of isolates at MIC 0.5 μg/mL ([4]; 48 h, pH 7): 8
- Number of isolates at MIC 1 μg/mL ([4]; 48 h, pH 7): 2
- Number of isolates at MIC 2 μg/mL ([4]; 48 h, pH 7): 1
- Number of isolates at MIC ≥4 μg/mL ([4]; 48 h, pH 7): 9
- MIC ([4]; 48 h, pH 4, fluconazole-resistant isolate 1, pH 4, 48 h): > 64 µg/mL
- MIC ([4]; 48 h, pH 4, fluconazole-resistant isolate 2, pH 4, 48 h): 32 µg/mL (≈ 104 µM)
- MIC ([4]; 48 h, pH 4, fluconazole-resistant isolate 3, pH 4, 48 h): > 64 µg/mL
- MIC ([4]; 48 h, pH 4, fluconazole-resistant isolate 4, pH 4, 48 h): > 64 µg/mL
- MIC ([4]; 48 h, pH 4, fluconazole-resistant isolate 5, pH 4, 48 h): > 64 µg/mL
- MIC ([4]; 48 h, pH 4, fluconazole-resistant isolate 6, pH 4, 48 h): > 64 µg/mL
- MIC ([4]; 48 h, pH 4, fluconazole-resistant isolate 7, pH 4, 48 h): 32 µg/mL (≈ 104 µM)
- MIC ([4]; 48 h, pH 4, fluconazole-resistant isolate 8, pH 4, 48 h): > 64 µg/mL
- MIC ([4]; 48 h, pH 4, fluconazole-resistant isolate 9, pH 4, 48 h): > 64 µg/mL
- MIC ([4]; 48 h, pH 4, fluconazole-resistant isolate 10, pH 4, 48 h): 64 µg/mL (≈ 209 µM)
- MIC ([4]; 48 h, pH 7, fluconazole-resistant isolate 1, pH 7, 48 h): 16 µg/mL (≈ 52.2 µM)
- MIC ([4]; 48 h, pH 7, fluconazole-resistant isolate 2, pH 7, 48 h): 16 µg/mL (≈ 52.2 µM)
- MIC ([4]; 48 h, pH 7, fluconazole-resistant isolate 3, pH 7, 48 h): 16 µg/mL (≈ 52.2 µM)
- MIC ([4]; 48 h, pH 7, fluconazole-resistant isolate 4, pH 7, 48 h): 8 µg/mL (≈ 26.1 µM)
- MIC ([4]; 48 h, pH 7, fluconazole-resistant isolate 5, pH 7, 48 h): > 64 µg/mL
- MIC ([4]; 48 h, pH 7, fluconazole-resistant isolate 6, pH 7, 48 h): 0.25 µg/mL (≈ 0.816 µM)
- MIC ([4]; 48 h, pH 7, fluconazole-resistant isolate 7, pH 7, 48 h): 16 µg/mL (≈ 52.2 µM)
- MIC ([4]; 48 h, pH 7, fluconazole-resistant isolate 8, pH 7, 48 h): 32 µg/mL (≈ 104 µM)
- MIC ([4]; 48 h, pH 7, fluconazole-resistant isolate 9, pH 7, 48 h): > 64 µg/mL
- MIC ([4]; 48 h, pH 7, fluconazole-resistant isolate 10, pH 7, 48 h): 16 µg/mL (≈ 52.2 µM)
- MIC90 ([4]; pH 4, 24 h): 8 µg/mL (≈ 26.1 µM)
- MIC90 ([4]; pH 4, 48 h): > 64 µg/mL
- MIC90 ([4]; pH 7, 24 h): 8 µg/mL (≈ 26.1 µM)
- MIC90 ([4]; pH 7, 48 h): 16 µg/mL (≈ 52.2 µM)
